In patent publication EP0831877B1, “METABOLIC EFFECTS OF CERTAIN GLUTATHIONE ANALOGS” (TELIK, INC., priority 1995, dated 1996):
Several values for one entry are separate records, joined by “and”; a condition that tells them apart may be missing. Equal values may be shown once. Read-outs that look alike come from different tables or passages of the source.

How the values were obtained:
[1] = tested on: normal BDF1 mouse bone marrow erythroid (BFU-E) progenitor cells; assay: colony formation, mouse bone marrow BFU-E; format: cell-based
Procedure: The effects are dose-dependent, usually in the range of 1.0 to 10.0 µM, and in most cases for cells stimulated by GM-CSF, G-CSF, M-CSF, Flt3/Flk-2 and Steel factor (stem cell factor/c-kit ligand). Of particular interest was the finding that TER199 enhances colony formation stimulated by combinations of cytokines. Additionally, the enhancing effect is more pronounced in human than in murine bone marrow.

[2] = tested on: CD34^+++ cells from human cord blood or bone marrow; assay: CD34+++ cell differentiation in the presence of cytokines; format: cell-based; conditions: 0.1 µM-10 µM TER199, erythropoietin 1 unit/ml, IL-3 100 unit/ml
[3] = in vitro half-life in human blood; format: in vitro ADME
bone marrow GM-CFU [4] = tested on: bone marrow GM-CFU
Procedure: Bone marrows were harvested 24 hours after cisplatin administration.
Bone marrows were harvested 24 hours after administration of the second drug.

peripheral blood cells [5] = assay: peripheral blood response to 5-FU with oral TER199 in mice; format: in vivo; conditions: 150 mg/kg 5-FU IP, 24 hours later oral 150 mg/kg TER199, versus 5-FU alone
Procedure: The mice were bled through the retroorbital plexus and the blood samples were analyzed for changes in blood counts.

bone marrow GM-CFU [6] = assay: 5-fluorouracil-induced GM-CFU suppression in mice; conditions: for GM-CFU: harvest 48 hours after 5-FU
Procedure: The control group was not treated with either drug. Bone marrows were harvested and GM-CFUs were determined 24 hours after the final injection.
Values are the mean ± SE of three mice per point.

bone marrow GM-CFU [7] = assay: cyclophosphamide-induced GM-CFU suppression in mice; format: in vivo
HT4-1 tumors = assay: potentiation of melphalan toxicity in vivo, implanted HT4-1 tumors; design: species or system Male scid mice; conditions: group 5: 5 mg/kg melphalan + 60 mg/kg TER199, seven days; when control tumors reached 1500 mm^3
Procedure: Male scid mice were subcutaneously implanted with HT4-1 tumors from donor mice. HT4-1 is a subclone of HT-29, a human colon cancer. When tumors reached approximately 100 mm^3, the mice were randomized into six treatment groups and treated for seven days as follows: • 1. 5 mg/kg melphalan; • 2. 10 mg/kg ethacrynic acid; • 3. […] 5 mg/kg melphalan + 10 mg/kg ethacrynic acid; • 5.
The mice were monitored for weight changes and tumor volumes were determined by measurement with calipers. The tumor growth was monitored until the average tumor size reached 1500 mm^3 for all groups except melphalan with ethacrynic acid.
The results were computed in terms of the tumor volume in the drug treated mice as a percentage of control tumor volume (i.e., in the group administered vehicle alone). In group 1, administered melphalan alone, the tumors were approximately 75% of the volume of controls. […] For group 4 administered a combination of melphalan and ethacrynic acid, the volumes were approximately 35% of control. […] (The volume measurements were taken at the time control tumors reached 1500 mm^3.)

peripheral blood cells [8] = assay: peripheral blood response to 5-FU with i.p. TER199 in rats; format: in vivo, Sprague-Dawley derived rats; conditions: 5-FU 150 mg/kg i.p. day one
Procedure: Sprague-Dawley derived rats were treated according to the schedule below (Table 11).

bone marrow GM-CFU [9] = assay: stimulation of bone marrow GM-CFU after administration to mice; format: in vivo, B6D2F1 mice; conditions: for most effective dose on bone marrow GM-CFU (Figure 4a): single treatment, harvest 24 hours
Procedure: In an illustrative assay three B6D2F1 mice were treated with various doses of benzyl PG intraperitoneally.
Mice in the control group were injected with water or saline. Bone marrow cells were harvested 24 hours after drug treatment and added to alpha minimum essential medium (alpha MEM) supplemented with methylcellulose (0.8% w/v), fetal bovine serum (20% v/v), deionized BSA (1% w/v), Pokeweed mitogen-stimulated spleen-cell conditioned medium (PWM-SCCM)^1 (10% v/v) and gentamycin (50 Tg/ml). One ml aliquots were plated (four replicate plates) and incubated for seven days at 37 °C. […] Spleens were removed aseptically from four male B6D2F1 mice enforced through a 200 Tm wire mesh screen to obtain a single cell suspension. Ten ml of the suspension (2-4 X 10^7 cell/ml was added to 90 ml alpha-MEM supplemented with 1% deionized BSA, 50 Tg/ml gentamicin, 0.3% freshly reconstituted pokeweed antigen, 10 µM 2-mercaptoethanol. The mixture was incubated for 5 days at […] in a 5% CO2 atmosphere and the result-ing conditioned medium was centrifuged at 800g for ten minutes and filtered through a 0.22 Tm filter. Aliquots were kept frozen at […] until use.
Bone marrow was harvested 24 hours after administering the compounds and GM-CFU levels measured as described above.

[10] = in vitro half-life / metabolism in mouse blood; format: in vitro ADME
HT-29 cells = assay: Cytosensor Microphysiometer acidification rates; format: cell-based, human; conditions: 4 hours pretreatment, TER199 20 µM, ethacrynic acid 50 µM
Procedure: The metabolic effects related to toxicity of the compounds of the invention on HT-29 cells, were tested using a Cytosensor Microphysiometer made by Molecular Devices, Inc., Menlo Park, CA and described in McConnell, H.M. et al. Science (1992) 257:1906-1912 and by Wada, H.G. et al. AATEX (1992) 1:154-164. Changes in pH of the culture medium are measured as a function of cellular metabolism. Acidification rates of the small volume of liquid flowing over the cells correlate with the number of live cells in the reaction chamber; a reduction of acidification rate reflects reduced numbers of surviving cells. […] The medium was then replaced with serum-free low buffer capacity medium and Microphysiometer analysis was initiated.

[11] = TER199 150 mg/kg p.o. 24 hours after cisplatin 20 mg/kg i.p.
[12] = TER199 60 mg/kg b.i.d. or 120 mg/kg q.d. i.p. day 2-10

Question: What does the source list for `CCOC(=O)[C@@H](N)CCC(=O)N[C@@H](CSCc1ccccc1)C(=O)N[C@@H](C(=O)OCC)c1ccccc1` [TER199, γE ethyl ester-C(Bz)-R-(-)-ϕG ethyl ester]?
Answer: % change from control ([1]; EPO 1 U/ml, TER199 0.1 µM): 0%; Colony number ([1]; EPO 1 U/ml, TER199 0.1 µM): 2±1 and 4±1; Colony number ([1]; EPO 1 U/ml, TER199 1.0 µM): 2±1 and 3±1; % change from control ([1]; EPO 1 U/ml, TER199 10 µM): 0%; Colony number ([1]; EPO 1 U/ml, TER199 10 µM): 2±1 and 4±1; Colony number ([1]; EPO + 50 ng/ml SLF, TER199 0.1 µM): 8±1 and 9±1; Colony number ([1]; EPO + 50 ng/ml SLF, TER199 1.0 µM): 8±1 and 9±1; Colony number ([1]; EPO + 50 ng/ml SLF, TER199 10 µM): 8±1 and 9±1; BFU-E (Figure 16) [2]: modest positive effects; CFU-GEMM colony formation (Figure 16) ([2]; steel factor 50 ng/ml): modest positive effects; half-life [3]: ~1.5 h; half-life, comparison of the three compounds [3]: approximately the same; GM-CFUs per femur (bone marrow GM-CFU [4]; TER199 60 mg/kg i.p. 24 hours before cisplatin 15 mg/kg i.p.): 62 % of control; GM-CFU (bone marrow GM-CFU [4]; [11]): 40%; increase in GM-CFU versus cisplatin alone (bone marrow GM-CFU [4]; [11]): 2.5 fold; GM-CFU (bone marrow GM-CFU [4]; TER199 150 mg/kg p.o. 24 hours before cisplatin 20 mg/kg i.p.): 52 % of control; lymphocytes (Figure 15c) (peripheral blood cells [5]): no differences were found; monocytes (Figure 15d) (peripheral blood cells [5]): statistically significant difference only on day 9; neutrophils (Figure 15b) (peripheral blood cells [5]): statistically significant difference was obtained only on day 9; total white cell counts (Figure 15a) (peripheral blood cells [5]): essentially no significant difference; GM-CFU counts per femur (bone marrow GM-CFU [6]; 60 mg/kg TER199 IP 24 hours after 75 mg/kg 5-FU IP): greater than control values; number of GM-CFUs per femur compared with fluorouracil alone (bone marrow GM-CFU [6]; 60 mg/kg TER199 IP simultaneously with 75 mg/kg 5-FU IP): fourfold increase; GM-CFU (bone marrow GM-CFU [6]; TER199 150 mg/kg p.o. 24 hours after 5-FU 75 mg/kg i.p.): 90 % of control; GM-CFU (bone marrow GM-CFU [6]; TER199 150 mg/kg p.o. 24 hours after 5-FU 150 mg/kg i.p.): 71 % of control; GM-CFU by day 4 after 5-FU administration (Figure 9b) (bone marrow GM-CFU [6]; TER199 IP 24 hours after 5-FU): about twice that of control; effect on GM-CFU (Figure 9c) (bone marrow GM-CFU [6]; TER199 i.p. 24 hours prior to 5-FU): essentially no effect; cyclophosphamide-induced GM-CFU suppression (Figure 13, panel A) (bone marrow GM-CFU [7]; TER199 120 mg/kg, i.p. 24 hours after cyclophosphamide 200 mg/kg, i.p.): reduces GM-CFU suppression; cyclophosphamide-induced GM-CFU suppression (Figure 13, panel B) (bone marrow GM-CFU [7]; TER199 150 mg/kg, p.o.): similarly effective; tumor volume as a percentage of control tumor volume (HT4-1 tumors): approximately 55%; platelet levels (Figure 14) (peripheral blood cells [8]; [12]): recovered to normal levels by study Day 12; white blood cell, neutrophil, and lymphocyte levels (Figure 14) (peripheral blood cells [8]; [12]): reached pretest levels sooner than the 5-FU-treated group; red blood cell counts (Figure 14) (peripheral blood cells [8]; TER199 i.p. day 2-10, compared to 5-FU control animals): observed decrease is reduced; GM-CFU (bone marrow GM-CFU [9]; 90 mg/kg intraperitoneally, marrow harvested 24 hours later, controls about 140): approximately 275 colonies/10^4 nucleated cells; most effective dose on bone marrow GM-CFU (Figure 4a) (bone marrow GM-CFU [9]; IP administration): 60 to 90 mg/kg; effect on GM-CFU as a function of dosage, ester/amide forms (Figure 7) (bone marrow GM-CFU [9]; bone marrow harvested 24 hours after administering): significantly more effective than the mixed ester amide (TER300); most effective dose on bone marrow GM-CFU (Figure 4a) (bone marrow GM-CFU [9]; oral administration): 120 to 180 mg/kg; time of maximum stimulation of GM-CFU (Figure 5) (bone marrow GM-CFU [9]; single 60 mg/kg dose IP on day 0): day 2 and day 5; half-life [10]: < 1 min; effect on acidification rates, compound alone (Figure 2) (HT-29 cells; no chlorambucil): Neither γE-C(Bz)-ϕG diethylester (TER199) nor ethacrynic acid alone had any appreciable effect; effect of pretreatment on acidification rates with chlorambucil (Figure 2) (HT-29 cells; then 100 µM chlorambucil): potentiated the effect of chlorambucil
